Experimental data: a melting point compilation (Tetko et al.; mined from patent text by program, amines drawn as free bases though some values may be those of a salt)

melting point [°C]	SMILES
81 to 83	CCOC(=O)C(C)(C)NC(=O)C(Br)c1ccccc1 (configuration not stated)
168	CCN1C(=O)C(O)=C(c2c(C)cc(C)cc2C)C1=O
181 to 182	O=C(Nc1ccccc1)c1nn(-c2cccc(C(F)(F)F)c2)ccc1=O
236 to 238	Cc1ncc2cc(-c3c(Cl)cccc3Cl)c(N=CN(C)C)nc2n1
164	COc1ccc(S(=O)(=O)N(CC#N)c2ccc(Cl)cc2C(=O)c2ccccc2Cl)cc1OC
164 to 166	CC(=O)NC[C@H]1CN(c2ccc(N3CCC(Cc4nnn[nH]4)CC3)c(F)c2)C(=O)O1
83 to 85	CCOC(=O)C(=Nc1ccc(OC)cc1)c1cccn1C
92 to 96	Cc1cn(-c2ccc(N)c(C)c2)c(C)n1
154 to 155	CCOC(=O)c1ccc(NC(=O)CCc2ccc(C)cc2)cc1
101 to 103	COc1cc(OCc2ccccc2)ccc1C(O)c1cc(Cl)ccc1N (configuration not stated)
292	Cc1cc(-c2cnn3c(C(F)(F)F)cc(-c4ccc(F)c(Cl)c4)nc23)ccn1
95	O=C(NC(=O)N1CCC(Cc2ccccc2)CC1)c1ccc(O)cc1
233 to 235	CC(O)c1cc2c(s1)S(=O)(=O)CCc1cc(=O)n(-c3ccc(Cl)cc3)nc1-2 (configuration not stated)
232 to 235	Cc1cc2c(-c3cccc(/C=C/C=O)c3)c(CC(=O)Nc3ccc(F)cc3C(F)(F)F)c(=O)oc2cc1Cl
175 to 177	COc1cc(/C=C\c2cnc(N)nc2N)cc(OC)c1OC
190 to 191	CC(=NNc1ccc(C(F)(F)F)cc1)C(=O)O
345 to 347	Cc1cc(-n2cc(-c3ccc(S(C)(=O)=O)cc3)nc2C)cc2ccc(=O)[nH]c12
162 to 164	COc1ccc(S(=O)(=O)F)cc1NC(C)=O
202	Cc1cc(-c2ccc(Cl)c(Cl)c2)nc(-c2ccnc(-c3cccc(S(N)(=O)=O)c3)c2)n1
176 to 178	O=C(O)c1ccc(OCC2CC(=O)N(c3ccc(OC4CCCC4O)cc3)C2)cc1 (configuration not stated)
139 to 140	CCCN(C(C)C)[C@H]1COc2c(F)ccc(C(N)=O)c2C1
109 to 110	CN(C)CCN1c2ccccc2C(=O)N(C)c2cccnc21
196 to 198	Cc1nc2cnccc2n1-c1ccc(CCO)cc1
122 to 123	CC(C)(C)c1cc(SC2CCN(S(=O)(=O)c3ncc(CO)[nH]3)CC2)cc(C(C)(C)C)c1O
172 to 173	CCCCn1c(COc2ccccc2)nc2c(N)nc3ccccc3c21
189 to 191	CC(C)c1ccc2oc(C=Cc3ccc(C#N)cc3)cc(=O)c2c1

melting point [°C]	SMILES
309 to 310	Cc1cc(-c2ccc3c(c2)c2cc(-c4ccc(Cl)cc4Cl)c(=O)n(C)c2n3C)[nH]n1
159 to 160	NC(=O)c1cnc2sccc2c1Cl
125 to 127	CCCCC(CC)COc1ccc2c(-c3ccc(C=O)cc3)c3cc(OCC(CC)CCCC)ccc3c(-c3ccc(C=O)cc3)c2c1 (configuration not stated)
216 to 218	CCCc1nc2c(N)nc3cc(OCc4ccccc4Cl)ccc3c2n1CC(C)C
110 to 111	O=C1OC(Cc2ccc3c(c2)OCO3)CN1c1ccccc1 (configuration not stated)
> 250	CCOC(=O)c1sc(-c2ccc(C#N)cc2)nc1CO
175	CC(C)c1ccc(NC(=O)OC(C)(C)C)c(C(=O)O)c1
112 to 114	CCN(c1ccc(C#N)cc1Cl)S(=O)(=O)c1ccc(C)cc1
194 to 195	Cc1nc2c(NC(=O)C(C)(C)C)c(C(O)C=Cc3ccccc3)ccn2c1C (configuration not stated)
143 to 144	Cc1cc2c(c(C)c1O)C(C)(C)CN2C(=O)C(C)(C)C
127 to 129	COC(=O)C(OC)Oc1ccc(C2CCN(c3ccncc3)CC2)cc1 (configuration not stated)
99 to 120	CCCC[C@H](NC(=O)[C@H](C)Nc1nc2ccccc2s1)C(=O)OC
101 to 102	[N-]=[N+]=NC(C(=O)O)C1c2ccccc2CCc2ccccc21 (configuration not stated)
263 to 265	COc1ccc(C(N)=Nc2ccc(C(=O)O)cc2)cc1C12CC3CC(CC(C3)C1)C2
210 to 213	CCc1nnc2cc(C)c(-c3ccc(C(N)=O)cc3)nn12
110	c1ccc(COc2cccn3ccnc23)cc1
211 to 212	CN1CCN(c2c(F)cc3c(=O)c(C(=O)O)cn(C4COC4)c3c2Cl)CC1
97 to 98	CN(CCOc1ccc(C=O)cc1)c1nc2ccccc2o1
158 to 160	COc1ccc(CCN2C=CC=C3C2=Nc2ccccc2OS3(=O)=O)cc1O
201 to 204	CCN(CC)c1ccc(/C=C/c2cc(/C=C/c3ccc4cc[nH]c4c3)[nH]n2)cc1
202	Cc1nc(S)nn1-c1ccc([N+](=O)[O-])cc1
122 to 124	Cc1cc(C2(C(F)(F)F)CC(c3ccc(F)cc3)=NO2)ccc1NC(=O)c1cccc(N)c1C(=O)NC(C)C (configuration not stated)
193 to 196	O=C(Nc1ccc2cc(CN3CCC(CCO)CC3)cnc2c1)c1ccc(-c2ccc(F)cc2)cc1
129	O=C(c1cccs1)c1cnn2c(-c3cccc(-c4cc[nH]n4)c3)ccnc12
95 to 97	CCOC(=O)C(=CNc1ccnn1Cc1ccncc1)C(=O)OCC
146	O=C(NCCCl)Oc1ccc(Cl)c2cccnc12

melting point [°C]	SMILES
160 to 161	CC(=O)OCC1OC([NH+]2C=NC(C#N)=C2[O-])C(OC(C)=O)C1OC(C)=O (configuration not stated)
151 to 152	COc1cc2c(cn1)CC(CC(=O)O)C=C2 (configuration not stated)
223	CCCn1nc(O)c2cc(Cl)c(Cl)cc2c1=O
130 to 134	Cc1ccc2c(n1)CCCC2(O)c1ccccc1 (configuration not stated)
96.5 to 101	CCCCc1ccc(S(=O)(=O)Nc2cc(C)on2)s1
85	CC(O)c1ccc(C(C)(C)C)cc1 (single isomer, unassigned; (+))
228	CC(=O)OC1CSC(Sc2ccc(C#N)cc2C#N)C(OC(C)=O)C1OC(C)=O (configuration not stated)
119	CSc1ccc(O)nn1
63 to 65	O=C(O)CCCC=CCCc1ccc(OCc2ccccc2)cc1
165 to 166	CC(C)(C)c1cc(C(c2ccc(C#N)cc2)N2CCCCC2)c(O)c(C(C)(C)C)c1 (configuration not stated)
54 to 58	Cc1c(Br)cc(C(C)(C)C)c(O)c1C(=O)O
233 to 235	O=C(O)[C@@H]1C[C@H](Cc2ccc(Cl)cc2)CN1
73 to 75	CCCC(=O)c1cnc2ccc(OC)cc2c1Cl
145 to 148	CC1CCCN(c2cc(F)cc(C(=O)Nc3ccc(OCCN4CCOCC4)c4ccccc34)c2)C1 (configuration not stated)
50 to 51	CCCCCCCCCCCC(=O)c1ccc(/C=C/C(=O)OCC)o1
169 to 171	Nc1sc2c(c1C(=O)c1ccc3ccccc3c1)CCN(Cc1ccccc1Cl)C2
234 to 236	CC(=O)NC1=C(C#N)C(c2cccc([N+](=O)[O-])c2)c2ccc3ccccc3c2O1 (configuration not stated)
85 to 87	CC(C)(C)OC(=O)Cn1c(C(=O)c2ccccc2)ccc1-c1ccccc1
140 to 142	COC(=O)c1cc2c(Cl)cc(C(=O)OC)c(Cl)c2c(Cl)c1Cl
105	CN(C)CCOc1ccc2ccc(N)nc2n1
154 to 155	N#Cc1ccc(-c2ccc(C=Cc3ccccc3)o2)nc1
32 to 32.5	CCCCC(=O)/C=C/c1ccccc1
148	O=C(NN1CCCCC1)c1nn(-c2ccc(Cl)cc2Cl)c2c1SCc1cc(Cl)ccc1-2
152 to 154	CN1OCC(=O)N(C(c2ccccc2)c2ccccc2)C1=S
119 to 121	CCOC(=O)c1cnn(-c2ccc(F)cc2)c1
223 to 228	N#CC(=Cc1cc(O)c(O)c([N+](=O)[O-])c1)C(=O)NCCCO

melting point [°C]	SMILES
130 to 132	Nc1ccc(SCc2csc(N)n2)cc1
198	Oc1ccc(N2CCN(c3ccc4ccccc4n3)CC2)cc1
119 to 120	COc1ccc([N+](=O)[O-])cc1CN1CCC(=O)C(C(c2ccccc2)c2ccccc2)C1 (configuration not stated)
80 to 82	CCOC(=O)C=CN1C(C)(C)CC(OC(=O)CCl)CC1(C)C
228 to 230	COc1ccc(-c2c(Cl)c(CN3CCCC3=O)nc3sc4cnccc4c23)cc1OC
148 to 150	c1ccc(C(Nc2ccncc2)c2ccccc2)cc1
203 to 204	CSc1ccc(Nc2cc(-c3nnc(C)o3)ccn2)cc1
72 to 74	CS(=O)Cc1ccc(Cl)nc1 (configuration not stated)
192 to 196	CC1=Nc2ccc(C)cc2C(O)(c2ccccc2)N1N (configuration not stated)
230	CCCCc1ccc(Cn2cc(C3c4ccccc4C=Cc4ccccc43)c(=S)[nH]c2=O)cc1C(=O)O
232 to 233	COc1oc(-c2ccc(NS(=O)(=O)c3sc4ccc(F)cc4c3C)c(S(C)(=O)=O)c2)nc1C
160 to 161	CCC(C)(Oc1ccc(CC(=O)c2ccc3c(c2)CCC3)cc1)C(=O)O (configuration not stated)
52 to 54	CCn1c(=O)ccc2ccccc21
183 to 184	CCOC(=O)c1sc2cccc(O)c2c1C
182	CC(=O)c1cccc(S(=O)(=O)NCc2ccccc2-c2ccccc2C(=O)NCc2ccccc2)c1
121 to 125	C=CCNC(=O)c1cc(Cl)c2[nH]ncc2n1
107 to 115	CNC(=O)C(CCN(C)C)(c1ccccc1)C(O)c1ccccc1 (configuration not stated)
217 to 219	O=C(NC1CCCCC1)N[C@H]1C[C@H](C(=O)O)Nc2cc(Cl)cc(Cl)c21 (relative stereo)
84 to 85	CC1(C)CC(=O)Oc2cc(O)ccc21
74 to 78	CSc1nc(Cl)c(-c2ccc(C)cc2)c(Cl)n1
220	CCCCc1c(C(=O)O)[nH]c2c(Br)cccc2c1=O
135 to 137	Nc1ccccc1NC(=O)c1ccc(CNC(=O)c2[nH]c(-c3ccsc3)cc2-c2ccc(O)cc2)cc1
300 to 302	Cc1ccc2c3[nH]nc(Cc4ccccc4)c3c(=O)n(-c3ccccc3)c2n1

SMILES	melting point [°C]
[N-]=[N+]=Nc1cc2ccccc2oc1=O	108 to 112
